Measurements: patent publication US8192962B2, “Processes for detecting toxic substances” (Daikin Industries, Ltd., priority 2001, dated 2012)

Tested on: Stress protein genes
Assay: DNA chip mRNA expression in yeast, stress protein genes (Table 6)
Format: cell-based, Saccharomyces cerevisiae S288C
Outline: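 Measured as treated-to-untreated fluorescence ratio on a full-genome yeast DNA chip. Cells (S288C, YPD, 25° C.) were exposed in log phase for two hours to one chemical, dosed to curb growth without killing.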

Measured: The level of expressed mRNA in the presence of chemical substance/The level of expressed mRNA in the absence of chemical substance

O=[N+]([O-])c1cc[n+]([O-])c2ccccc12 [(5), 4-nitroquinolin-N-oxide]
0.8: yeast gene YBR054W | yeast gene YBR169C | yeast gene YCR060W | yeast gene YDR077W | yeast gene YDR155C | yeast gene YER057C | yeast gene YKL210W | yeast gene YNL241C | yeast gene YOR009W | yeast gene YPL140C | yeast gene YPR026W
1.5: yeast gene YCL035C | yeast gene YDR098C
0.4: yeast gene YEL030W
1.1: yeast gene YAL015C | yeast gene YBL075C | yeast gene YBR067C | yeast gene YDR033W | yeast gene YER042W | yeast gene YER103W | yeast gene YFL020C | yeast gene YGL181W | yeast gene YHL028W | yeast gene YHR104W | yeast gene YIL011W | yeast gene YJL165C | yeast gene YKL164C | yeast gene YLR259C | yeast gene YMR173W
1.0: yeast gene YBL093C | yeast gene YFL014W | yeast gene YGR088W | yeast gene YJL159W | yeast gene YKR053C | yeast gene YML007W | yeast gene YOR027W | yeast gene YPR005C
1.4: yeast gene YBR044C | yeast gene YER125W | yeast gene YFR052W | yeast gene YJL158C | yeast gene YKL161C | yeast gene YML070W | yeast gene YOR008C | yeast gene YOR208W
1.8: yeast gene YHR030C
1.2: yeast gene YAL005C | yeast gene YBR072W | yeast gene YGL115W | yeast gene YJL128C | yeast gene YJR090C | yeast gene YNR076W | yeast gene YOR010C | yeast gene YPL059W | yeast gene YPL106C
0.9: yeast gene YCR021C | yeast gene YDR513W | yeast gene YEL039C | yeast gene YHL046C | yeast gene YLL026W | yeast gene YLL039C | yeast gene YLL060C | yeast gene YNL064C | yeast gene YOL064C | yeast gene YOL161C | yeast gene YPL223C
1.3: yeast gene YDR258C | yeast gene YFL016C | yeast gene YHR057C | yeast gene YLR109W | yeast gene YMR186W | yeast gene YNL160W | yeast gene YPL194W | yeast gene YPL240C
0.6: yeast gene YDL025C | yeast gene YDR293C | yeast gene YIR037W | yeast gene YKL163W
1.7: yeast gene YGL073W
1.6: yeast gene YCR083W | yeast gene YLR006C | yeast gene YMR021C
0.7: yeast gene YBR126C | yeast gene YDL022W | yeast gene YDR436W | yeast gene YDR519W | yeast gene YIL033C | yeast gene YIR038C | yeast gene YLL024C
0.5: yeast gene YJR045C
